This is an account of results in ChEMBL document CHEMBL1123761, “Inhibition of the mammalian beta-lactamase renal dipeptidase (dehydropeptidase-I) by (Z)-2-(acylamino)-3-substituted-propenoic acids” (J Med Chem, 1987).

The target in this assay is T1, Dipeptidase 1 (Sus scrofa, UniProt P22412).
T1 sequence (P22412 whole entry): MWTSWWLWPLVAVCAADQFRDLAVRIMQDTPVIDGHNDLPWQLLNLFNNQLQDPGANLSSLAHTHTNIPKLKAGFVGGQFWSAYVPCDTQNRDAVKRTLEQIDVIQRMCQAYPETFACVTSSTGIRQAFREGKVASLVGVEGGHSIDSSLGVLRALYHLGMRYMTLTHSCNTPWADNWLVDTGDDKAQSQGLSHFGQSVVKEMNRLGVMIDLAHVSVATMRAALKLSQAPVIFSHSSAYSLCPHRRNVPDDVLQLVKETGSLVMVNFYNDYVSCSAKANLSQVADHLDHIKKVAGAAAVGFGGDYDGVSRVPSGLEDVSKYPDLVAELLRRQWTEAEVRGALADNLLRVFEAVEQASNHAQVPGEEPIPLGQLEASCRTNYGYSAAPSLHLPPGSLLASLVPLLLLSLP
Nature of the assay: Inhibitory activity against beta-lactamase renal dipeptidase.

pKi: −log10 of the molar value.

For the compound `C/C=C(\NC(=O)C=C(C)C)C(=O)O`, the pKi is 4.55.
Under `C/C=C(\NC(=O)CCCCCNC(=O)CC)C(=O)O` stands 4.39.
In the case of `C#CCNCCCCC/C=C(\NC(=O)C1CC1(C)C)C(=O)O` (stereo not drawn), the pKi is 6.13.
Under `C/C=C(\NC(=O)CC(C)CCCC(C)(C)O)C(=O)O` (stereo not drawn) stands 4.17; under `CC1(C)CC1C(=O)N/C(=C\CCCCCCCBr)C(=O)O` (stereo not drawn), 6.96.
With `CC1(C)CC1C(=O)N/C(=C\C1CC1)C(=O)O` (stereo not drawn) the figure was 6.36.
Compound `CC(NCCCCC/C=C(\NC(=O)C1CC1(C)C)C(=O)O)P(=O)(O)O` (stereo not drawn) had a pKi of 6.55.
`C/C=C(\NC(=O)[C@@H]1C[C@H]1C)C(=O)O`: the pKi is 5.77.
With `CN(C)CCCCCCC/C=C(\NC(=O)C1CC1(C)C)C(=O)O` (stereo not drawn), the pKi was 6.28.
In the case of `C/C=C(\NC(=O)CC(C)CCCC(C)C)C(=O)O` (stereo not drawn), the pKi was 5.40.
Under `CSCCCCC/C=C(\NC(=O)C1CC1(C)C)C(=O)O` (stereo not drawn) stands 6.82.
Turning to `CC1(C)CC1C(=O)N/C(=C\CCCCCBr)C(=O)O` (stereo not drawn), the pKi is 6.57. Compared with the last compound, the pKi is 0.25 log units lower.
Under `C/C=C(\NC(=O)C1CC1(F)F)C(=O)O` (stereo not drawn) stands 5.68; under `CC1(C)CC1C(=O)N/C(=C\CCCCSc1ncccc1O)C(=O)O` (stereo not drawn), 7.70.
With `CC1(C)CC1C(=O)N/C(=C\CCCCCCCN)C(=O)O` (stereo not drawn) the figure was 6.09; with `CC1(C)CC1C(=O)N/C(=C\CCCCCNC(N)=O)C(=O)O` (stereo not drawn), 6.52.
Regarding `C[N+](C)(C)CCCCC/C=C(\NC(=O)C1CC1(Cl)Cl)C(=O)O` (stereo not drawn), the pKi is 6.74.
Turning to `CC1(C)CC1C(=O)N/C(=C\CCCSc1ncccc1O)C(=O)O` (stereo not drawn), the negative logarithm of the Ki (pKi) was 6.89. The pKi values of the last two compounds are within 0.2 log units of each other.
Compound `CC1(C)CC1C(=O)N/C(=C\CCCSCP(=O)(O)O)C(=O)O` (stereo not drawn) gave a negative-log Ki (pKi) of 6.66. Compared with the last compound, the pKi is 0.23 log units lower.
In turn, `C/C=C(\NC(=O)c1cccc(Cl)c1)C(=O)O` showed a pKi of 4.66. Compared with the last compound, the pKi is 2.00 log units lower.
As to `C/C=C(\NC(=O)CC1CCCC1)C(=O)O`, the negative-log Ki (pKi) was 5.01.
Under `C/C=C(\NC(=O)[C@@H]1C[C@@H]1C)C(=O)O` stands 4.92.
Under `C/C=C(\NC(=O)C1CC(C)(C)C1)C(=O)O` stands 4.95.
In turn, `CC1(C)CC1C(=O)N/C(=C\CCCSCC(N)C(=O)O)C(=O)O` (stereo not drawn) gave a negative-log Ki (pKi) of 6.57.
Under `C/C=C(\NC(=O)CSCC)C(=O)O` stands 4.51.
As to `CC(=O)NC(CSCCCC/C=C(\NC(=O)[C@H]1CC1(C)C)C(=O)O)C(=O)O` (stereo partly drawn), the pKi is 7.22.
Under `CC1(C)C[C@@H]1C(=O)N/C(=C\CCCCSC[C@H](N)C(=O)O)C(=O)O` (stereo in doubt; 175) [CILASTATIN] stands 6.72.
With `C/C=C(\NC(=O)C1(C)CC1(Cl)Cl)C(=O)O` (stereo not drawn) the figure was 3.79; with `C=CCCCCCCCCC(=O)N/C(=C\C)C(=O)O`, 4.47.
With `C/C=C(\NC(=O)C1CCC1C)C(=O)O` (stereo not drawn) the figure was 5.33; with `C/C=C(\NC(=O)CCC(C)C)C(=O)O`, 4.85; with `CC1(C)CC1C(=O)N/C(=C\CCCCCO)C(=O)O` (stereo not drawn), 6.64.
As for `C/C=C(\NC(=O)[C@@H]1C[C@H]1c1ccccc1)C(=O)O`, the pKi is 5.30. This pKi is 1.34 log units lower than that of the compound before.
`C/C=C(\NC(=O)[C@@H]1C[C@H]1CC)C(=O)O`: the pKi is 5.80. Against the preceding compound, the pKi is 0.50 log units higher.
`C=CCNCCCCC/C=C(\NC(=O)C1CC1(C)C)C(=O)O` (stereo not drawn) showed a pKi of 6.06.
Under `CC1(C)C[C@@H]1C(=O)N/C(=C\CCCCCNC(C)(C)P(=O)(O)O)C(=O)O` stands 6.74.
For the compound `C/C=C(\NC(=O)CCCCCCCCCCC)C(=O)O`, the negative logarithm of the Ki (pKi) is 4.46.
With `C/C=C(\NC(=O)CCCCC(=O)OCC)C(=O)O` the figure was 4.74.
For the compound `C/C=C(\NC(=O)C1CCCCCC1)C(=O)O`, the negative logarithm of the Ki (pKi) was 4.92.
Compound `CN(CCCC/C=C(\NC(=O)C1CC1(C)C)C(=O)O)CC(=O)O` (stereo not drawn) showed a negative logarithm of the Ki (pKi) of 6.25.
Regarding `CC1(C)CC1C(=O)N/C(=C\CCCCCS)C(=O)O` (stereo not drawn), the pKi is 6.77.
For `CCCCC/C=C(/NC(=O)C1CC1(C)C)C(=O)O` (stereo not drawn), the negative logarithm of the Ki (pKi) is 4.95. This pKi is 1.82 log units lower than that of the compound before.
`C/C=C(\NC(=O)CCCC(=O)OCC)C(=O)O` showed a negative logarithm of the Ki (pKi) of 4.41.
With `C/C=C(\NC(=O)C1CC12CC2)C(=O)O` (stereo not drawn) the figure was 5.80.
Under `CC1(C)C[C@@H]1C(=O)N/C(=C\CCCCSC[C@H](N)C(=O)O)C(=O)O` (stereo in doubt; 174) [CILASTATIN] stands 6.68; under `C/C=C(\NC(=O)CCCNC(=O)CC(C)C)C(=O)O`, 4.28.
With `CC1(C)CC1C(=O)N/C(=C\CCCCC#N)C(=O)O` (stereo not drawn) the figure was 6.68.
`CCCCCCC/C=C(\NC(=O)C1CC1(C)C)C(=O)O` (stereo not drawn) gave a pKi of 7.02.
Under `C/C=C(\NC(=O)C1C(C)C1(C)C)C(=O)O` (stereo not drawn) stands 5.14.
`CCN(CC)CCCCC/C=C(\NC(=O)C1CC1(C)C)C(=O)O` (stereo not drawn) had a negative logarithm of the Ki (pKi) of 6.07.
With `CC1(C)CC1C(=O)N/C(=C\CCCCS(=O)(=O)O)C(=O)O` (stereo not drawn) the figure was 7.06; with `C=C(NC(=O)C1CC1(C)C)C(=O)O` (stereo not drawn), 4.28.
Under `CC1(C)CC1C(=O)N/C(=C\CCCCCSCC(N)=O)C(=O)O` (stereo not drawn) stands 6.60; under `CC1(C)CC1C(=O)N/C(=C\CCCCCCC[N+](C)(C)Cc1ccccc1)C(=O)[O-]` (stereo not drawn), 6.35; under `CC1(C)CC1C(=O)N/C(=C\CCCCCSCC(N)C(=O)O)C(=O)O` (stereo not drawn), 6.64.
Under `CCC/C=C(\NC(=O)C1CC1(Br)Br)C(=O)O` (stereo not drawn) stands 7.82.
For the compound `CC1(C)CC1C(=O)N/C(=C\CCCCSCC(=O)C(=O)O)C(=O)O` (stereo not drawn), the pKi is 6.80. This pKi is 1.02 log units lower than that of the compound before.
`CC1(C)CC1C(=O)N/C(=C\CCCCCNC1=NCCN1)C(=O)O` (stereo not drawn) showed a negative logarithm of the Ki (pKi) of 6.08.
In turn, `CC1(C)CC1C(=O)N/C(=C\CCCCCCBr)C(=O)O` (stereo not drawn) showed a negative-log Ki (pKi) of 6.80.
Under `CN(CCCCCC/C=C(\NC(=O)C1CC1(C)C)C(=O)O)CC(=O)O` (stereo not drawn) stands 6.40; under `C/C=C(\NC(=O)C(C)C(C)C)C(=O)O` (stereo not drawn), 5.48.
In turn, `COC(=O)CSCCC/C=C(\NC(=O)C1CC1(C)C)C(=O)O` (stereo not drawn) showed a negative-log Ki (pKi) of 6.55.
For `C/C=C(\NC(=O)CCCCCCCC)C(=O)O`, the pKi was 4.49.
Under `C/C=C(\NC(=O)c1ccccc1Cl)C(=O)O` stands 4.60; under `CC1(C)CC1C(=O)N/C(=C\CCCCCN)C(=O)O` (stereo not drawn), 6.00; under `C/C=C(\NC(=O)CCCCC(=O)N/C(=C\C)C(=O)O)C(=O)O`, 5.00.
Under `C/C=C(\NC(=O)CCCCC#N)C(=O)O` stands 4.60.
On to `C/C=C(\NC(=O)CC1CCCCC1)C(=O)O`, for which the pKi was 4.60.
With `CC1(C)CC1C(=O)N/C(=C\CC(F)(F)F)C(=O)O` (stereo not drawn) the figure was 6.62; with `CC1(C)CC1C(=O)N/C(=C\CCCCSc1ncccc1C(=O)O)C(=O)O` (stereo not drawn), 7.40; with `CC1(C)CC1C(=O)N/C(=C\CCCCCNCP(=O)(O)O)C(=O)O` (stereo not drawn), 6.40.
As to `CC1(C)CC1C(=O)N/C(=C\CCCCCC#N)C(=O)O` (stereo not drawn), the pKi was 7.09.
With `CC1(C)CC1C(=O)N/C(=C\CCCCC[n+]1ccccc1)C(=O)[O-]` (stereo not drawn) the figure was 5.96; with `C/C=C(\NC(=O)CC(C)(C)C)C(=O)O`, 4.70; with `CC1(C)CC1C(=O)N/C(=C\CCCCBr)C(=O)O` (stereo not drawn), 6.82.
With `COC(=O)CSCCCCC/C=C(\NC(=O)C1CC1(C)C)C(=O)O` (stereo not drawn) the figure was 6.70; with `CCCCCCCCC/C=C(\NC(=O)C1CC1(C)C)C(=O)O` (stereo not drawn), 6.96.
The compound `CCCCCC/C=C(\NC(=O)C1CC1(C)C)C(=O)O` (stereo not drawn) gave a pKi of 6.80. This pKi and that of the compound before are within 0.2 log units of each other.
With `CC1(C)CC1C(=O)N/C(=C\CCCCCNC=N)C(=O)O` (stereo not drawn) the figure was 6.11; with `CC1(C)C[C@@H]1C(=O)N/C(=C\CCCCC[N+](C)(C)C)C(=O)[O-]`, 6.19.
For `CC1(C)CC1C(=O)N/C(=C\CCCCCC/C=C(\NC(=O)C1CC1(C)C)C(=O)O)C(=O)O` (stereo not drawn), the negative-log Ki (pKi) is 7.04.
For the compound `C/C=C(\NC(=O)C1CC1)C(=O)O`, the negative-log Ki (pKi) was 5.52.
With `C/C=C(\NC(=O)CCCc1cccs1)C(=O)O` the figure was 5.00; with `C/C=C(\NC(=O)[C@H]1[C@H](C)[C@@H]1C)C(=O)O`, 5.34; with `CCCCC/C=C(\NC(=O)[C@@H]1CC1(C)C)C(=O)O`, 5.06.
`C/C=C(\NC(=O)c1ccccc1)C(=O)O` gave a pKi of 4.15.
Under `C/C=C(\NC(=O)[C@@H]1C[C@H]1C(C)(C)C)C(=O)O` stands 5.19.
Under `CN(CCCCC/C=C(\NC(=O)C1CC1(C)C)C(=O)O)CC(=O)O` (stereo not drawn) stands 6.54; under `CC1(C)CC1C(=O)N/C(=C\CCCBr)C(=O)O` (stereo not drawn), 6.42; under `CC1(C)CC1C(=O)N/C(=C\CCCCC(=O)O)C(=O)O` (stereo not drawn), 7.24.
For the compound `C=CCC/C=C(\NC(=O)C1CC1(C)C)C(=O)O` (stereo not drawn), the pKi is 6.64.
`C/C=C(\NC(=O)CCCNC(C)=O)C(=O)O` showed a pKi of 3.99.
`CC(C)CC(=O)N/C(=C\CCC(=O)O)C(=O)O` gave a pKi of 5.57.
Compound `CC(NCCCCC/C=C(\NC(=O)[C@H]1CC1(C)C)C(=O)O)P(=O)(O)O` (stereo partly drawn) had a pKi of 6.80.
Under `CC1(C)CC1C(=O)N/C(=C\CCCCCNCCP(=O)(O)O)C(=O)O` (stereo not drawn) stands 6.24; under `CNC(CSCCCC/C=C(\NC(=O)[C@H]1CC1(C)C)C(=O)O)C(=O)O` (stereo partly drawn), 6.82; under `COCCCCC/C=C(\NC(=O)C1CC1(C)C)C(=O)O` (stereo not drawn), 6.74.
With `CN(C)CCCC/C=C(\NC(=O)C1CC1(C)C)C(=O)O` (stereo not drawn) the figure was 5.46; with `C/C=C(\NC(=O)CCCCCBr)C(=O)O`, 4.72.
`CC1(C)CC1C(=O)N/C(=C\CCCCSc1ccccc1)C(=O)O` (stereo not drawn) gave a pKi of 7.00.
With `C/C=C(\NC(=O)C1CCCCC1)C(=O)O` the figure was 4.82; with `C/C=C(\NC(=O)C1CC1(Cl)Cl)C(=O)O` (stereo not drawn), 7.10; with `CN(C)CCCCC/C=C(\NC(=O)C1CC1(C)C)C(=O)O` (stereo not drawn), 5.89.
